Laboratory results taken from patent US20250002450A1, “CATIONIC STEROID COMPOUNDS, METHOD OF OBTAINING THEREOF, FORMULATIONS COMPRISING THEREOF AND THEIR USES” (UNIVERSIDADE DO PORTO, priority 2021, published 2025).

Assays:
[1] = tested on: Salmonella enterica serovar Typhimurium CECT 443; assay: Antibacterial MIC/MBC (broth microdilution); type: cell-based
Text: (§1) Twelve reference bacterial strains and nine MDR clinically relevant bacterial strains were used in this study. Gram-negative bacteria comprised reference strains E. coli ATCC 25922, K. pneumoniae ATCC 13883, Salmonella enterica serovar Typhimurium CECT 443, P. aeruginosa ATCC 27853, A. baumannii ATCC 19606, C. jejuni ATCC 33560 (ATCC—American Type Culture Collection; CECT—Colección Espanola de Cultivos Tipo); clinical isolates E. coli SA/2, an extended-spectrum β-lactamase (ESBL)-producing strain and P. aeruginosa 33b, a pan-drug-resistant isolate; and animal isolates C. jejuni P5/4, a ciprofloxacin-resistant strain, C. jejuni 4432, C. jejuni 4433, C. jejuni 4448, and E. coli 2252, a COL-resistant strain [42]. Gram-positive strains included S. aureus ATCC 29213, E. faecalis ATCC 29212, S. pyogenes ATCC 19615, and environmental isolates methicillin-resistant S. aureus (MRSA) 66/1 [43], and VAN-resistant enterococci (VRE) E. faecalis B3/101 [44]. Gram-negative fish pathogens Yersinia ruckeri ATCC 29473, Listonella anguillarum ATCC 1924, and Tenacibaculum maritimum ATCC 43397 were also included.
(§2) Strains were kept in Trypto-Casein Soy agar (TSA—Biokar Diagnostics, Allone, Beauvais, France) slants and, before each assay, were sub-cultured in Mueller-Hinton agar (MHA—Biokar Diagnostics, Allone, Beauvais, France). Y. ruckeri ATCC 29473 and L. anguillarum ATCC 1924 were kept in Nutrient Agar (Condalab, Madrid, Spain) and T. maritimum ATCC 43397 was kept in TMM agar (Condalab, Madrid, Spain), and were sub-cultured in the respective culture media before each assay. For S. pyogenes ATCC 19615, CAMHB was supplemented with 3.75% lysed horse blood (LBH—Oxoid, Basingstoke, England), whereas for C. jejuni it was supplemented with 2.5% LHB. Colony-forming unit counts of the inoculum were conducted to determine the initial inoculum size (which should be approximately 5×10^5 CFU/mL). Sterility and growth controls were included in each assay. The 96-well U-shaped untreated polystyrene microtiter plates were incubated for 20 h at 37 degrees C. (42 degrees C. for C. jejuni, in a microaerophilic atmosphere) and the minimal inhibitory concentration (MIC) was determined as the lowest concentration of compound that prevented visible growth. The minimal bactericidal concentration (MBC) was determined by spreading 100 μL of the content of the wells with no visible growth on MH plates. The MBC was determined as the lowest concentration of compound that killed 99.9% of the initial inoculum after overnight incubation at 37 degrees C. Two independent assays were performed for reference and MDR strains.
(§3) An initial screening of the antibacterial activity of the compounds was performed by the Kirby-Bauer disk diffusion method, as recommended by the Clinical and Laboratory Standards Institute (CLSI). Briefly, sterile 6 mm blank paper disks (Oxoid, Basingstoke, England) impregnated with 15 μg of each compound were placed on inoculated MH agar plates. A blank disk with dimethylsulfoxide (DMSO) was used as a negative control. MH inoculated plates were incubated for 18-20 h at 37 degrees C. At the end of incubation, the inhibition halos where measured. The MIC was used to determine the antibacterial activity of each compound, in accordance with the recommendations of the CLSI. Two-fold serial dilutions of the compounds were prepared in Mueller-Hinton Broth 2 (MHB2—Sigma-Aldrich, St. Louis, MO, USA) within the concentration range of 0.062-64 μg/mL. CTX ranging between 0.031-16 μg/mL was used as a control. Sterility and growth controls were included in each assay. Purity checks and colony counts of the inoculum suspensions were also performed in order to ensure that the final inoculum density closely approximates the intended number (5×10^5 CFU/mL). The MIC was determined as the lowest concentration of compound that inhibited growth of the bacteria. The MBC was assessed by spreading 10 μL of culture collected from wells showing no visible growth on MH agar plates. […]

[2] = tested on: Acinetobacter baumannii ATCC 19606; assay: Antibacterial MIC/MBC (broth microdilution); type: cell-based; conditions: Acinetobacter baumannii ATCC 19606
Text: as §1, §2, §3

[3] = tested on: Campylobacter jejuni ATCC 33560; assay: Antibacterial MIC/MBC (broth microdilution); type: cell-based; conditions: Campylobacter jejuni ATCC 33560
Text: as §1, §2, §3

[4] = tested on: Yersinia ruckeri ATCC 29473; assay: Antibacterial MIC/MBC (broth microdilution); type: cell-based
Text: as §1, §2, §3

[5] = tested on: Listonella anguilarum ATCC 1924; assay: Antibacterial MIC/MBC (broth microdilution); type: cell-based; conditions: Listonella anguilarum ATCC 1924
Text: as §1, §2, §3

[6] = tested on: Escherichia coli ATCC 25922; assay: Antibacterial MIC/MBC (broth microdilution); type: cell-based; conditions: Escherichia coli ATCC 25922
Text: as §1, §2, §3

[7] = tested on: Klebsiella pneumoniae ATCC 13883; assay: Antibacterial MIC/MBC (broth microdilution); type: cell-based; conditions: Klebsiella pneumoniae ATCC 13883
Text: as §1, §2, §3

[8] = tested on: Staphylococcus aureus ATCC 29213; assay: Antibacterial MIC/MBC (broth microdilution); type: cell-based
Text: as §1, §2, §3

[9] = tested on: Pseudomonas aeruginosa ATCC 27853; assay: Antibacterial MIC/MBC (broth microdilution); type: cell-based; conditions: Pseudomonas aeruginosa ATCC 27853
Text: as §1, §2, §3

[10] = tested on: S. aureus 66/1 (MRSA); assay: Antibacterial MIC/MBC (broth microdilution); type: cell-based, Staphylococcus aureus
Text: as §1, §2, §3

[11] = tested on: Tenacibaculum maritimum ATCC 43397; assay: Antibacterial disk diffusion; type: cell-based; conditions: Tenacibaculum maritimum ATCC 43397, footnote *
Text: as §1, §2, §3

[12] = tested on: C. jejuni 4433; assay: Antibacterial MIC/MBC (broth microdilution); type: cell-based, Campylobacter jejuni
Text: as §1, §2, §3

[13] = tested on: C. jejuni 4448; assay: Antibacterial MIC/MBC (broth microdilution); type: cell-based, Campylobacter jejuni
Text: as §1, §2, §3

[14] = tested on: C. jejuni 4432; assay: Antibacterial MIC/MBC (broth microdilution); type: cell-based, Campylobacter jejuni
Text: as §1, §2, §3

[15] = tested on: C. jejuni P5/4; assay: Antibacterial MIC/MBC (broth microdilution); type: cell-based, Campylobacter jejuni
Text: as §1, §2, §3

[16] = tested on: P. aeruginosa 33b (PDR); assay: Antibacterial MIC/MBC (broth microdilution); type: cell-based, Pseudomonas aeruginosa; conditions: P. aeruginosa 33b (PDR)
Text: as §1, §2, §3

[17] = tested on: Streptococcuss pyogenes ATCC 19615; assay: Antibacterial MIC/MBC (broth microdilution); type: cell-based, Streptococcus pyogenes; conditions: Streptococcuss pyogenes ATCC 19615
Text: as §1, §2, §3

[18] = tested on: E. coli 2252 (COL-resistant); assay: Antibacterial MIC/MBC (broth microdilution); type: cell-based, Escherichia coli; conditions: E. coli 2252 (COL-resistant)
Text: as §1, §2, §3

[19] = tested on: E. coli SA/2 (ESBL); assay: Antibacterial MIC/MBC (broth microdilution); type: cell-based, Escherichia coli; conditions: E. coli SA/2 (ESBL)
Text: as §1, §2, §3

[20] = tested on: Enterococcuss faecalis ATCC 29212; assay: Antibacterial MIC/MBC (broth microdilution); type: cell-based, Enterococcus faecalis; conditions: Enterococcuss faecalis ATCC 29212
Text: as §1, §2, §3

[21] = tested on: E. faecalis B3/101 (VRE); assay: Antibacterial MIC/MBC (broth microdilution); type: cell-based, Enterococcus faecalis; conditions: E. faecalis B3/101 (VRE)
Text: as §1, §2, §3

C[C@H](CCC(=O)NCCc1nc2ccccc2[nH]1)[C@H]1CC[C@H]2[C@@H]3CC[C@@H]4C[C@H](O)CC[C@]4(C)[C@H]3C[C@H](O)[C@]12C [Compound 7, (R)—N-(2-(1H-benzo[d]imidazol-2-yl)ethyl)-4-((3R,5R,8R,9S,10S,12S,13R,14S,17R)-3,12-dihydroxy-10,13-dimethylhexadecahydro-1H-cyclopenta[a]phenanthren-17-yl) pentanamide]
8 µg/mL: MIC [8]
9 mm: Inhibition zone diameter (disk diffusion) [11]
>64 µg/mL: MBC [1] | MIC [1] | MBC [2] | MIC [2] | MBC [3] | MIC [3] | MBC [4] | MIC [4] | MBC [5] | MIC [5] | MBC [6] | MIC [6] | MBC [7] | MIC [7] | MBC [8] | MBC [9] | MIC [9] | MBC [10] | MBC [12] | MIC [12] | MBC [13] | MIC [13] | MBC [14] | MIC [14] | MBC [15] | MIC [15] | MBC [16] | MIC [16] | MBC [17] | MIC [17] | MBC [18] | MIC [18] | MBC [19] | MIC [19] | MBC [20] | MIC [20] | MBC [21] | MIC [21]
16 µg/mL: MIC [10]
